BindingDB's records for doi:10.1016/j.bioorg.2017.05.009 (Kinnaird College for Women, 2017)

Target: Alpha-glucosidase MAL32 (Saccharomyces cerevisiae, UniProt P38158)
Test: α-Glucosidase Inhibition Assay
Conditions: pH 6.8; 37 °C
Experimental: For α-glucosidase inhibition assay, α-glucosidase enzyme (Cat No. 5003-1KU Type I; isolated from Saccharomyces cereviciae) was used. Acarbose was the reference standard and Pierre's methodology was employed [Pierre et al., J. Clin. Chem., 24:208-211]. First absorbance was taken at 400 nm after the 10 min incubation of a mixture of phosphate buffer ([…], pH 6.8), test compound ([…], 0.5 mM) and enzyme ([…], 0.0234 units, Sigma Inc.). Later, […] of p-nitrophenyl-α-D-glucopyranoside (0.5 mM, code No. N1377 from Sigma Inc) was added. After 30 min incubation at 37 °C, the absorbance was retaken at 400 nm.

Sequence of Alpha-glucosidase MAL32 (P38158 whole entry): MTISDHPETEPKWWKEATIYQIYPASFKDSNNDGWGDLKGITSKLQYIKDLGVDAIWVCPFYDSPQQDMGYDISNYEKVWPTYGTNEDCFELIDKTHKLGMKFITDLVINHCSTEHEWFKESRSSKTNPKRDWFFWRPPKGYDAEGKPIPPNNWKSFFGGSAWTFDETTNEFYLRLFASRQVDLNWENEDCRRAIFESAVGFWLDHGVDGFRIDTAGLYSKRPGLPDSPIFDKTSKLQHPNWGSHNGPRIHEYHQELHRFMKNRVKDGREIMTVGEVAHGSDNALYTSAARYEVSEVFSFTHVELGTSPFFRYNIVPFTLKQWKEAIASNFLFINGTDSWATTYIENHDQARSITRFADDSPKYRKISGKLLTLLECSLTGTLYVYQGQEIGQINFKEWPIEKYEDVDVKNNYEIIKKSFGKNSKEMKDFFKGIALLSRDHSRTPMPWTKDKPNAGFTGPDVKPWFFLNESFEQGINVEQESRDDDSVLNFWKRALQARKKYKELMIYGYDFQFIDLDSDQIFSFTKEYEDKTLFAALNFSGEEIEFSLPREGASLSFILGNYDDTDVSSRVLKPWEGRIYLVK

Structure (SMILES) | IC50 [µM]
Cc1cc(C)cc(-n2c(-c3cn(-c4ccccc4)nc3C3=CC4C=CC=CC4OC3=O)nc(-c3ccccc3)c2-c2ccccc2)c1 (stereo not given) [3-(4-(1-(3,5-Dimethylphenyl)-4,5-diphenyl-1H-imidazol-2-yl)-1-phenyl-1H-pyrazol-3-yl)-4a,8a-dihydro-2H-chromen-2-one (3d)] | 46.4
O=C1OC2C=CC=CC2C=C1c1nn(-c2ccccc2)cc1-c1nc(-c2ccccc2)c(-c2ccccc2)n1-c1ccc(Br)cc1 (stereo not given) [3-(4-(1-(4-Bromophenyl)-4,5-diphenyl-1H-imidazol-2-yl)-1-phenyl-1H-pyrazol-3-yl)-4a,8a-dihydro-2H-chromen-2-one (3b)] | 34.3
O=C1OC2C=CC=CC2C=C1c1nn(-c2ccccc2)cc1-c1nc(-c2ccccc2)c(-c2ccccc2)n1-c1ccc(Cl)cc1 (stereo not given) [3-(4-(1-(4-Chlorophenyl)-4,5-diphenyl-1H-imidazol-2-yl)-1-phenyl-1H-pyrazol-3-yl)-4a,8a-dihydro-2H-chromen-2-one (3a)] | 12.7
COc1ccc(-n2c(-c3cn(-c4ccccc4)nc3C3=CC4C=CC=CC4OC3=O)nc(-c3ccccc3)c2-c2ccccc2)cc1 (stereo not given) [3-(4-(1-(4-Methoxyphenyl)-4,5-diphenyl-1H-imidazol-2-yl)-1-phenyl-1H-pyrazol-3-yl)-4a,8a-dihydro-2H-chromen-2-one (3c)] | 25.4
CCCn1c(-c2cn(-c3ccccc3)nc2C2=CC3C=CC=CC3OC2=O)nc(-c2ccccc2)c1-c1ccccc1 (stereo not given) [3-(4-(4,5-Diphenyl-1-propyl-1H-imidazol-2-yl)-1-phenyl-1Hpyrazol-3-yl)-4a,8a-dihydro-2H-chromen-2-one (3e)] | 44.8
Cc1cc(C)cc(-n2c(-c3cn(-c4ccccc4)nc3C3=CC4C=C(Br)C=CC4OC3=O)nc(-c3ccccc3)c2-c2ccccc2)c1 (stereo not given) [6-Bromo-3-(4-(1-(3,5-dimethylphenyl)-4,5-diphenyl-1Himidazol-2-yl)-1-phenyl-1H-pyrazol-3-yl)-4a,8a-dihydro-2Hchromen-2-one (3g)] | 5.64
O=c1oc2ccc(Br)cc2cc1-c1nn(-c2ccccc2)cc1-c1nc(-c2ccccc2)c(-c2ccccc2)n1-c1ccc(Br)cc1 [6-Bromo-3-(4-(1-(4-bromophenyl)-4,5-diphenyl-1H-imidazol-2-yl)-1-phenyl-1H-pyrazol-3-yl)-2H-chromen-2-one (3j)] | 5.21
O=c1oc2ccc(Br)cc2cc1-c1nn(-c2ccccc2)cc1-c1nc(-c2ccccc2)c(-c2ccccc2)n1-c1ccc(Cl)cc1 [6-Bromo-3-(4-(1-(4-chlorophenyl)-4,5-diphenyl-1H-imidazol-2-yl)-1-phenyl-1H-pyrazol-3-yl)-2H-chromen-2-one (3f)] | 2.53
COc1ccc(-n2c(-c3cn(-c4ccccc4)nc3-c3cc4cc(Br)ccc4oc3=O)nc(-c3ccccc3)c2-c2ccccc2)cc1 [6-Bromo-3-(4-(1-(4-methoxyphenyl)-4,5-diphenyl-1Himidazol-2-yl)-1-phenyl-1H-pyrazol-3-yl)-2H-chromen-2-one (3h)] | 9.27
Cc1ccc(-n2c(-c3cn(-c4ccccc4)nc3-c3cc4cc(Br)ccc4oc3=O)nc(-c3ccccc3)c2-c2ccccc2)cc1 [6-Bromo-3-(4-(4,5-diphenyl-1-(p-tolyl)-1H-imidazol-2-yl)-1-phenyl-1H-pyrazol-3-yl)-2H-chromen-2-one (3i)] | 5.83
